Laboratory results reported in PubChem BioAssay (NCI).
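Step 1: Grow cells in 96-well plates. Step 2: Expose to compound for 48 hours at 5 concentrations. Step 3: Interpolate endpoints linearly; if unreached, use highest concentration. At the TGI there is no net growth.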

Key:
Test in all cases: DTP human tumour cell line panel, 48 h
DMS 273 small cell lung = system: DMS 273 small cell lung
KM12 colon = system: KM12 colon
LXFL 529 NSCLC = system: LXFL 529 NSCLC
M14 melanoma = system: M14 melanoma
MOLT-4 leukemia = system: MOLT-4 leukemia
RPMI-8226 leukemia = system: RPMI-8226 leukemia
HOP-18 NSCLC = system: HOP-18 NSCLC
HS 578T breast = system: HS 578T breast
T-47D breast = system: T-47D breast

SMILES | TGI (DMS 273 small cell lung) [µM] | TGI (KM12 colon) [µM] | TGI (LXFL 529 NSCLC) [µM] | TGI (M14 melanoma) [µM] | TGI (MOLT-4 leukemia) [µM] | TGI (RPMI-8226 leukemia) [µM] | TGI (HOP-18 NSCLC) [µM] | TGI (HS 578T breast) [µM] | TGI (T-47D breast) [µM]
CCO/N=C(/N)c1ncn(Cc2ccccc2)c1NCC(OCC)OCC | > 100 | > 100 | > 100 | > 100 | > 100 | > 100 | – | – | –
COc1ccc(CNc2nc3cc(C(F)(F)F)ccc3nc2C)cc1OC | 48.9 | 83 | > 100 | 44.6 | 45.7 | 97 | – | – | –
CC(=O)N1C/C(=C\c2ccc(N(C)C)cc2)C(=O)/C(=C/c2ccc(N(C)C)cc2)C1 | > 100 | > 100 | > 100 | > 100 | > 100 | > 100 | > 100 | – | –
CCCCOC(=O)NC(=O)c1cn(C2CCCCC2)c(=O)[nH]c1=O | > 100 | > 100 | 93 | > 100 | > 100 | > 100 | 49.4 | – | –
N#CCC(=O)NC1C2CC3CC(C2)CC1C3 (stereo not drawn) | 48.2 | 32.5 | > 100 | 41.6 | > 100 | > 100 | – | – | –
CC(C)c1cc2c(O)c(c1)Cc1cc(C(C)C)cc(c1O)Cc1cc(C(C)C)cc(c1O)Cc1cc(C(C)C)cc(c1O)C2 | > 100 | > 100 | – | – | > 100 | > 100 | > 100 | – | –
CS(=O)(=O)c1cc(=O)c2ccccc2s1 | 20.7 | 32.3 | 3.02 | 3.44 | 3.92 | – | – | 68.8 | 9.41
COC(=O)C(=Cc1cc(OC)c(OC)c(OC)c1-c1cc2c(cc1C(C)=O)OCO2)C(=O)OC | 69 | 70.4 | 65.9 | – | > 211 | > 211 | 87.4 | – | –
COC(=O)c1cc(C)c(C)c2c1NC(=O)CNC2=O | > 100 | > 100 | > 100 | > 100 | > 100 | > 100 | – | – | –
O=C(Nc1ccc(Cl)cc1Cl)C(=O)C(C(=O)c1ccncc1)C1OC(=O)c2ccccc21 (stereo not drawn) | – | > 100 | > 100 | > 100 | > 100 | > 100 | > 100 | – | –
COc1cccc(N2C(=O)[C@H]3CC(C)c4c([nH]c5ccccc45)[C@H]3C2=O)c1 (stereo partly drawn) | > 100 | > 100 | > 100 | > 100 | > 100 | > 100 | – | – | –
